Results reported in PubChem BioAssay AID2060892 (Molecular Pharmacology Branch, DTP, NCI, 2025).
pIC50: −log10 of the molar value.

Tested on: HOP-62 complex spheroids with HUVEC/MSC, viability
Experiment: Anticancer human tumor HOP-62 cell line growth inhibition [RAS];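 further: spheroids exposed to agents for seven days before readout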;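 on viability, T/C: 100% = DMSO vehicle control viability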
Conditions: for pIC50: curve of first compound; for viability, T/C: stronger effect = lower value
Outline: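 Agents were tested in combination matrices in half-log decrements from a top concentration at or near clinical Cmax (10 microM if undetermined). Targets were multi-cell spheroids of tumour lines plus HUVEC and MSC stromal cells.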

## CCc1c2c(nc3ccc(O)cc13)-c1cc3c(c(=O)n1C2)COC(=O)[C@]3(O)CC + CCn1c(-c2cc(N3CCN(C)CC3)cnc2C(C)OC)c2c3cc(ccc31)-c1csc(n1)CC(NC(=O)C1CC1C)C(=O)N1CCCC(N1)C(=O)OCC(C)(C)C2
Second compound 0.000949 µM
  pIC50: 8.75
Second compound 0.003 µM
  pIC50: 8.81
Second compound 0.00949 µM
  pIC50: 8.94
Second compound 0.03 µM
  pIC50: > 9.02
Second compound 0.0949 µM
  pIC50: > 9.02
Second compound 0.3 µM
  pIC50: > 9.02
Second compound 0.000949 µM, first compound 0.000949 µM
  viability, T/C: 83.8%
Second compound 0.000949 µM, first compound 0.003 µM
  viability, T/C: 21.2%
Second compound 0.000949 µM, first compound 0.00949 µM
  viability, T/C: 9.03%
Second compound 0.000949 µM, first compound 0.03 µM
  viability, T/C: 7.89%
Second compound 0.000949 µM, first compound 0.0949 µM
  viability, T/C: 5.5%
Second compound 0.000949 µM, first compound 0.3 µM
  viability, T/C: 1.91%
Second compound 0.003 µM, first compound 0.000949 µM
  viability, T/C: 72.3%
Second compound 0.003 µM, first compound 0.003 µM
  viability, T/C: 18.9%
Second compound 0.003 µM, first compound 0.00949 µM
  viability, T/C: 13.3%
Second compound 0.003 µM, first compound 0.03 µM
  viability, T/C: 11.4%
Second compound 0.003 µM, first compound 0.0949 µM
  viability, T/C: 7.41%
Second compound 0.003 µM, first compound 0.3 µM
  viability, T/C: 4.35%
Second compound 0.00949 µM, first compound 0.000949 µM
  viability, T/C: 55.1%
Second compound 0.00949 µM, first compound 0.003 µM
  viability, T/C: 25.2%
Second compound 0.00949 µM, first compound 0.00949 µM
  viability, T/C: 17.4%
Second compound 0.00949 µM, first compound 0.03 µM
  viability, T/C: 13.7%
Second compound 0.00949 µM, first compound 0.0949 µM
  viability, T/C: 11.1%
Second compound 0.00949 µM, first compound 0.3 µM
  viability, T/C: 9.59%
Second compound 0.03 µM, first compound 0.000949 µM
  viability, T/C: 45.6%
Second compound 0.03 µM, first compound 0.003 µM
  viability, T/C: 32%
Second compound 0.03 µM, first compound 0.00949 µM
  viability, T/C: 21.1%
Second compound 0.03 µM, first compound 0.03 µM
  viability, T/C: 15.6%
Second compound 0.03 µM, first compound 0.0949 µM
  viability, T/C: 13.1%
Second compound 0.03 µM, first compound 0.3 µM
  viability, T/C: 13.2%
Second compound 0.0949 µM, first compound 0.000949 µM
  viability, T/C: 34.5%
Second compound 0.0949 µM, first compound 0.003 µM
  viability, T/C: 32.5%
Second compound 0.0949 µM, first compound 0.00949 µM
  viability, T/C: 19.7%
Second compound 0.0949 µM, first compound 0.03 µM
  viability, T/C: 14.7%
Second compound 0.0949 µM, first compound 0.0949 µM
  viability, T/C: 12.9%
Second compound 0.0949 µM, first compound 0.3 µM
  viability, T/C: 13.6%
Second compound 0.3 µM, first compound 0.000949 µM
  viability, T/C: 37.8%
Second compound 0.3 µM, first compound 0.003 µM
  viability, T/C: 25.2%
Second compound 0.3 µM, first compound 0.00949 µM
  viability, T/C: 18.5%
Second compound 0.3 µM, first compound 0.03 µM
  viability, T/C: 15.8%
Second compound 0.3 µM, first compound 0.0949 µM
  viability, T/C: 21.9%
Second compound 0.3 µM, first compound 0.3 µM
  viability, T/C: 15.8%
